According to patent publication US12721835B2, “Anticoccidial composition comprising violacein, and use thereof” (CJ CHEILJEDANG CORPORATION, priority 2020, dated 2026):

Key:
Eimeria tenella = experiment: Protozoan (sporozoite) direct killing effect; assay type: cell-based; details: tested 1 to 500 ppm, vs PBS control
Description: (§1) In the present example, protozoan (sporozoite) direct killing ability evaluation was conducted against 3 representative Eimeria kinds known to be infected in most farms (E. tenella, E. acervulina, E. maxima).
(§2) A certain amount of oocysts of each coccidial protozoan was put in a tube containing glass beads and pulverized, and then to remove the crushed oocyst cell wall and other debris, internal sporocysts were purified using the percoll density gradient, and washed with PBS solution. A reagent comprising sodium taurocholic acid (Sigma aldrich, USA) and trypsin (Gibco, USA), respectively, was treated to sporocysts of Eimeria tenella, Eimeria acervulina and Eimeria maxima for excystation of the internal sporozoites, and they were incubated, and then they were washed with PBS solution once and the protozoa were obtained.
(§3) After reacting the violacein and anticoccidial agents, salinomycin, diclazuril and gallic acid (hereinafter, material) with 3 kinds of Eimeria protozoa at various concentrations of 1 to 500 ppm, respectively, only alive protozoa (sporozoites) were counted through microscopic observation. […]

Eimeria acervulina = experiment: Protozoan (sporozoite) direct killing effect; assay type: cell-based; details: tested 1 to 500 ppm, vs PBS control
Description: as §1, §2, §3

Eimeria maxima = experiment: Protozoan (sporozoite) direct killing effect; assay type: cell-based; details: tested 1 to 500 ppm, vs PBS control
Description: as §1, §2, §3

[1] = tested on: Eimeria tenella, Eimeria acervulina, and Eimeria maxima; experiment: In vivo anticoccidial activity upon complex inoculation of 3 kinds of protozoa (broilers, formulated feed); design: Oocyst index: scale not given here; details: 3 kinds infection; for Lesion index: lesion score x 10; for ACI: out of 200 points; for Lesion score: sum of duodenum, jejunum and appendix; for RWG(%): vs non-infected negative control
Description: An in vivo anticoccidial efficacy evaluation test was performed in an animal experiment facility in Chungcheongnam-do, South Korea. One-day-old male Ross broilers were individually weighed and randomly divided into groups to use in an experiment. Matters and conditions for experimental design were described in Table 5.
A breeding farm was managed according to the Korean poultry breeding management guidelines. Cages and the breeding farm were cleaned and disinfected before starting the test. The temperature of […] and the humidity of 40 to 50% of the breeding farm were maintained, and it was continuously monitored.
The feed was mixed in Neobase, and each material (salinomycin (Cheilbio Cheilsalino-60 product), violacein (CJ Cheiljedang)) was added to the feed, respectively, at a concentration described in Table 6 below to be self-mixed. Antibiotics and supplements were not used in general feed and mixed feed, and no anticoccidial agent other than each material was added. Broilers were fed ad libitum throughout the experiment period. After putting 8 1-day-age broilers in cages randomly placed for each of the control group or test group and breeding, general feed (Al-choi product) was fed for 7 days, and then the mixed feed prepared above was ingested by dividing by control group or test group.
The feed formulation administered to the control group (negative control group or positive control group) and test group and whether coccidiosis was induced by three kinds of protozoa were described in Table 6 below.
Coccidiosis induction was performed by oral inoculation (challenge inoculation) in an oral tube type of 10,000, 50,000, 50,000 oocysts (eggs) with over 90% mature (sporulation) Eimeria tenella, Eimeria acervulina, and Eimeria maxima per one individual to 14-day-old broilers.
The anticoccidial efficacy by test group designed in Example 2-2 above was shown as an anticoccidial index (ACI), and the anticoccidial index was calculated by the similar method to Example 1-3 above. However, in the present example, the protozoa of Eimeria tenella, Eimeria acervulina, and Eimeria maxima were challenge inoculated, so the lesion score was calculated by summing the scores for each of the duodenum, jejunum and appendix, respectively, differently from Example 1-3.

CC[C@@H](C(=O)[C@@H](C)[C@@H](O)[C@H](C)[C@@H]1O[C@@H]([C@@H](CC)C(=O)O)CC[C@@H]1C)[C@H]1O[C@]2(C=C[C@@H](O)[C@]3(CC[C@@](C)([C@H]4CC[C@](O)(CC)[C@H](C)O4)O3)O2)[C@H](C)C[C@@H]1C [Salinomycin, salinomycin, reference compound]
Minimum concentration for killing 50% protozoa (sporozoites) (ppm) (Eimeria tenella): 500 ppm | Minimum concentration for killing 50% protozoa (sporozoites) (ppm) (Eimeria acervulina): 250 ppm | Minimum concentration for killing 50% protozoa (sporozoites) (ppm) (Eimeria maxima): 500 ppm | ADG(g/d) after challenge inoculation ([1]; feed 60 ppm): 46.6 g/day | Oocyst excretion amount/g ([1]; feed 60 ppm): 540000 g⁻¹ | Oocyst index ([1]; feed 60 ppm): 20.0 | Survival rate after challenge inoculation (%) ([1]; feed 60 ppm): 100% | Lesion index ([1]; feed 60 ppm): 55 | ACI ([1]; feed 60 ppm): 130 | Lesion score ([1]; feed 60 ppm): 5.5 | RWG(%) ([1]; feed 60 ppm): 105.1%

O=C1N=c2ccccc2=C1c1cc(-c2c[nH]c3ccc(O)cc23)[nH]c1O [Violacein, 3-(2-(5-Hydroxyindol-3-yl)-5-oxo-2-pyrrolin-4-ylidene)-2-indolinone]
Minimum concentration for killing 50% protozoa (sporozoites) (ppm) (Eimeria tenella): 0.63 ppm | Minimum concentration for killing 50% protozoa (sporozoites) (ppm) (Eimeria acervulina): 3.9 ppm | Minimum concentration for killing 50% protozoa (sporozoites) (ppm) (Eimeria maxima): 5 ppm | ADG(g/d) after challenge inoculation ([1]; feed 10 ppm): 40.4 g/day | Oocyst excretion amount/g ([1]; feed 10 ppm): 680000 g⁻¹ | Oocyst index ([1]; feed 10 ppm): 31.4 | Survival rate after challenge inoculation (%) ([1]; feed 10 ppm): 100% | Lesion index ([1]; feed 10 ppm): 51 | ACI ([1]; feed 10 ppm): 109 | Lesion score ([1]; feed 10 ppm): 5.1 | RWG(%) ([1]; feed 10 ppm): 91.1% | ADG(g/d) after challenge inoculation ([1]; feed 15 ppm): 45.2 g/day | Oocyst excretion amount/g ([1]; feed 15 ppm): 380000 g⁻¹ | Oocyst index ([1]; feed 15 ppm): 15.7 | Survival rate after challenge inoculation (%) ([1]; feed 15 ppm): 100% | Lesion index ([1]; feed 15 ppm): 31 | ACI ([1]; feed 15 ppm): 155 | Lesion score ([1]; feed 15 ppm): 3.1 | RWG(%) ([1]; feed 15 ppm): 102.0% | ADG(g/d) after challenge inoculation ([1]; feed 20 ppm): 42.1 g/day | Oocyst excretion amount/g ([1]; feed 20 ppm): 1.56e+06 g⁻¹ | Oocyst index ([1]; feed 20 ppm): 22.9 | Survival rate after challenge inoculation (%) ([1]; feed 20 ppm): 100% | Lesion index ([1]; feed 20 ppm): 40 | ACI ([1]; feed 20 ppm): 132 | Lesion score ([1]; feed 20 ppm): 4.0 | RWG(%) ([1]; feed 20 ppm): 95%
